Experimental data as given in patent US6329392A, “Substituted piperidines useful for the treatment of allergic diseases” (Aventis Pharmaceuticals, Inc., priority 1998, dated 2001).
Like-named read-outs stand apart in the source and are kept apart here.

Columns and labels:
[1] = target: T1, H1 receptor (Cavia porcellus, UniProt P31389); experiment: Histamine (H1) antagonism in guinea pig ileum; assay type: cell-based
T1 construct: A piece of ileum, about 20 cm in length, is removed and cut into 2 cm pieces; from tissue; host or cells: ileum of male Hartley guinea pigs
Experimental: Male Hartley guinea pigs, weighing 200-450 grams, are sacrificed by CO2 asphyxiation. A piece of ileum, about 20 cm in length, is removed and cut into 2 cm pieces. Each ileum piece is placed in an organ bath at 37° C. containing Tyrode's solution and is constantly aerated with 95% O2 /5%CO2. Tyrode's solution has the composition: NaCl 136.9 mM, KCl […], CaCl2 1.8 mM, NaH2 PO4 0.42 mM, NaHCO3 11.9 mM, and dextrose 5.55 mM. Contractions are measured with an isometric transducer (Grass FTO3C), and are recorded on a polygraph recorder and/or a computer. The ileum strips are loaded with 1.0 grams of tension and allowed to equilibrate for a minimum of 30 minutes before starting the experiments.
The potency of the antagonism is determined by the magnitude of the shift and is expressed as a pA2 value which is the negative logarithm of the molar concentration of antagonist which produces a two-fold shift of the dose response curve to the right. The pA2 value is calculated by using Schild analysis. O. Arunlakshana and H. O. Schild, Br. J. Pharmacol Chemother. 14, 48-58 (1958).
Table 1 presents pA2 values by the method of Example 93 which indicate potency of H1 receptor antagonism and IC50 values by the method of Example 95 which indicates NK1 receptor binding affinity for representative compounds of the present invention.

[2] = target: T2, NK1 receptor (Cavia porcellus, UniProt P30547); experiment: Antagonism of iodinated tachykinin (substance P) binding to NK1 receptors in guinea pig lungs; details: read-out: NK1 Receptor Binding Affinity, IC50
T2 construct: as evaluated in guinea pig lungs (Keystone Biologicals, Cleveland, Ohio); tissue Keystone Biologicals, Cleveland, Ohio; host or cells: guinea pig lung membranes
Experimental: Antagonism of iodinated tachykinin binding to NK1 receptors by putative antagonists
One skilled in the art can measure the NK1 receptor affinity of proposed tachykinin antagonists as evaluated in guinea pig lungs (Keystone Biologicals, Cleveland, Ohio). Tissues or cells are homogenized with a Polytron in 15 volumes of 50 mM Tris-HCl buffer (pH 7.4, […]) and centrifuged. The pellet is resuspended in Tris-HCl buffer and centrifuged; the pellet is washed twice by resuspension. The final pellet is resuspended at a concentration of 40 mg/ml incubation buffer and remains at room temperature for at least 15 min prior to use. […] Incubations are performed at room temperature for 90 min; binding is terminated by addition of 50 mM Tris-HCl buffer (pH 7.4, […]) and filtration under vacuum through GF/B filters presoaked with 0.1% polyethyleneimine. Filter bound radioactivity is quantitated in a gamma counter. […] IC50 values (concentration required to inhibit 50% of receptor binding) are generated for each of the test compounds by nonlinear regression using an iterative curve fitting program (GraphPAD Inplot, San Diego, Calif.).

[3] = read-out: H1 Receptor Antagonism, pA2, in vitro (converted)
[4] = guinea pig lungs, 0.1 nM 125I-Bolton Hunter Lys-3 labeled substance P, room temperature 90 min, pH 7.4

T1 sequence (P31389 whole entry): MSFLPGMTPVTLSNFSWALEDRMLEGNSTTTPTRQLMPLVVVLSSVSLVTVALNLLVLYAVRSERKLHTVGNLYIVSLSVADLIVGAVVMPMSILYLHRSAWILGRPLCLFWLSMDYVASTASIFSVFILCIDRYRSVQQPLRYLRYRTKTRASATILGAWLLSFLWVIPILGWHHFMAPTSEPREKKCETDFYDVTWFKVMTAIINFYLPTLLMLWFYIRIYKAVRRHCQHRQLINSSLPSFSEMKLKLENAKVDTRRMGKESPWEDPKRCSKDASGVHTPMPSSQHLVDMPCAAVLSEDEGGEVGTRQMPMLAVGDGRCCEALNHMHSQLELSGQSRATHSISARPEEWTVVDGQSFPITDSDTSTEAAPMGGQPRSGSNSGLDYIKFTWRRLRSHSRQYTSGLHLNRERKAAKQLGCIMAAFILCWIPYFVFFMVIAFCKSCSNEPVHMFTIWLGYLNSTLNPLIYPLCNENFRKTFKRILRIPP
T2 sequence (P30547 whole entry): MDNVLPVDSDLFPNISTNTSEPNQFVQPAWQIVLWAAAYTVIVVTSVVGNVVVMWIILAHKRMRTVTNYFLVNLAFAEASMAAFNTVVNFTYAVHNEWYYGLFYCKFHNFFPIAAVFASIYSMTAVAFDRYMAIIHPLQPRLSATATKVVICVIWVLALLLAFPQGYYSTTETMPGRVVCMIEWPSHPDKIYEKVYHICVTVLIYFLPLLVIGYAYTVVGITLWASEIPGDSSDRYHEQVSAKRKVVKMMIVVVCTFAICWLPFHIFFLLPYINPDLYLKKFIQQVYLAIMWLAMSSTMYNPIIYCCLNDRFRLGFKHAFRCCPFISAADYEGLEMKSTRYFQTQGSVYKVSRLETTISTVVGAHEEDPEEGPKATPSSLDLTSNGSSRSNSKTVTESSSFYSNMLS

Kb [1, 3] | IC50 [2, 4] | IC50 [2] | Compound | Kb [1]
0.0603 µM | 0.146 µM |  | COc1cc(C(=O)N2CCC(CCN3CCC(C(=O)c4nc5ccccc5n4Cc4ccc(F)cc4)CC3)(c3ccc4c(c3)OCO4)C2)cc(OC)c1OC (stereo not drawn) [Example 10, 1-(3,4,5-Trimethoxy-benzoyl)-3-[2-[4-[1-(4-fluoro-benzyl)-1 H-benzoimidazole-2-carbonyl]-piperidin-1-yl]-ethyl]-3-(benzo[1,3]dioxol-5-yl)-pyrrolidine] | 
0.0631 µM |  | 0.013 µM | COc1cc(C(=O)N2CCC(CCN3CCC(C(=O)c4nc5ccccc5n4Cc4ccco4)CC3)(c3ccccc3)C2)cc(OC)c1OC (stereo not drawn) [Example 44, 1-(3,4,5-Trimethoxy-benzoyl)-3-[2-[4-[1-(fur-2-ylmethyl)-1 H-benzoimidazole-2-carbonyl]-piperidin-1-yl]-ethyl]-3-phenyl-pyrrolidine] | 
0.891 µM |  | 0.029 µM | COc1cc(C(=O)N2CCC(CCN3CCC(C(=O)c4nc5ccccc5n4Cc4ccc(C(=O)O)cc4)CC3)(c3ccccc3)C2)cc(OC)c1OC (stereo not drawn) [Example 39, 1-(3,4,5-Trimethoxy-benzoyl)-3-[2-[4-[1-(4-carboxy-benzyl)-1 H-benzoimidazole-2-carbonyl]-piperidin-1-yl]-ethyl]-3-phenyl-pyrrolidine] | 
 |  |  | COc1ccc(C2(CCN3CCC(C(=O)c4nc5ccccc5n4Cc4ccc(F)cc4)CC3)CCN(C(=O)c3ccccc3)C2)cc1OC (stereo not drawn) [Example 2, 1-Benzoyl-3-[2-[4-[1-(4-fluoro-benzyl)-1 H-benzoimidazole-2-carbonyl]-piperidin-1-yl]-ethyl]-3-(3,4-dimethoxy-phenyl)-pyrrolidine] | 0.0269 µM
0.0501 µM |  | 0.029 µM | COc1cc(C(=O)N2CCC(CCN3CCC(C(=O)c4nc5ccccc5n4Cc4ccc(F)cc4)CC3)(c3ccc(Cl)c(Cl)c3)C2)cc(OC)c1OC (single isomer, unassigned; (+)) [Example 14, (+)-1-(3,4,5-Trimethoxy-benzoyl)-3-[2-[4-[1-(4-fluoro-benzyl)-1 H-benzoimidazole-2-carbonyl]-piperidin-1-yl]-ethyl]-3-(3,4-dichloro-phenyl)-pyrrolidine] | 
0.105 µM |  | 0.031 µM | CCOCCn1c(C(=O)C2CCN(CCC3(c4ccc(Cl)c(Cl)c4)CCN(C(=O)c4cc(OC)c(OC)c(OC)c4)C3)CC2)nc2ccccc21 (stereo not drawn) [Example 83, 1-(3,4,5-Trimethoxy-benzoyl)-3-[2-[4-[1-(2-ethoxy-ethyl)-1H-benzoimidazole-2-carbonyl]-piperidin-1-yl]-ethyl]-3-(3,4-dichloro-phenyl)-pyrrolidine] | 
0.0316 µM | 0.031 µM |  | COc1ccc(C2(CCN3CCC(C(=O)c4nc5ccccc5n4Cc4ccc(F)cc4)CC3)CCN(C(=O)c3cc(OC)c(OC)c(OC)c3)C2)cc1OC (stereo not drawn) [Example 1, 1-(3,4,5-Trimethoxy-benzoyl)-3-[2-[4-[1-(4-fluoro-benzyl)-1H-benzoimidazole-2-carbonyl]-piperidin-1-yl]-ethyl]-3-(3,4-dimethoxy-phenyl)-pyrrolidine] | 
0.141 µM |  | 0.085 µM | COc1cc(C(=O)N2CCC(CCN3CCC(C(=O)c4nc5ccccc5n4Cc4ccc(F)cc4)CC3)(c3ccc(Cl)c(Cl)c3)C2)cc(OC)c1OC (stereo not drawn) [Example 6, 1-(3,4,5-Trimethoxy-benzoyl)-3-[2-[4-[1-(4-fluoro-benzyl)-1 H-benzoimidazole-2-carbonyl]-piperidin-1-yl]-ethyl]-3-(3,4-dichloro-phenyl)-pyrrolidine] | 
0.129 µM |  | 0.109 µM | COc1cc(C(=O)N2CCC(CCN3CCC(C(=O)c4nc5ccccc5n4Cc4ccc(F)cc4)CC3)(c3ccc(C(F)(F)F)cc3)C2)cc(OC)c1OC (stereo not drawn) [Example 20, 1-(3,4,5-Trimethoxy-benzoyl)-3-[2-[4-[1-(4-fluoro-benzyl)-1 H-benzoimidazole-2-carbonyl]-piperidin-1-yl]-ethyl]-3-(4-trifluoromethyl-phenyl)-pyrrolidine] | 
0.141 µM |  | 0.325 µM | COc1cc(C(=O)N2CCC(CCN3CCC(C(=O)c4nc5ccccc5n4Cc4ccc(F)cc4)CC3)(c3ccc(F)cc3F)C2)cc(OC)c1OC (stereo not drawn) [Example 25, 1-(3,4,5-Trimethoxy-benzoyl)-3-[2-[4-[1-(4-fluoro-benzyl)-1 H-benzoimidazole-2-carbonyl]-piperidin-1-yl]-ethyl]-3-(2,4-difluoro-phenyl)-pyrrolidine] | 
0.513 µM |  | 0.015 µM | COc1cc(C(=O)N2CCC(CCN3CCC(C(=O)c4nc5ccccc5n4CCN4CCOCC4)CC3)(c3ccc(Cl)c(Cl)c3)C2)cc(OC)c1OC (stereo not drawn) [Example 32, 1-(3,4,5-Trimethoxy-benzoyl)-3-[2-[4-[1-(2-(morpholin-4-yl)-ethyl)-1 H-benzoimidazole-2-carbonyl]-piperidin-1-yl]-ethyl]-3-(3,4-dichlororphenyl)-pyrrolidine] | 
0.0417 µM |  | 0.024 µM | CCOCCn1c(C(=O)C2CCN(CCC3(c4ccccc4)CCN(C(=O)c4cc(OC)c(OC)c(OC)c4)C3)CC2)nc2ccccc21 (stereo not drawn) [Example 40, 1-(3,4,5-Trimethoxy-benzoyl)-3-[2-[4-[1-(2-ethoxy-ethyl)-1 H-benzoimidazole-2-carbonyl]-piperidin-1-yl]-ethyl]-3-phenyl-pyrrolidine] | 
0.0339 µM |  |  | COc1cc(C(=O)N2CCC(CCN3CCC(C(=O)c4nc5ccccc5n4Cc4ccc(F)cc4)CC3)(c3ccccc3)C2)cc(OC)c1OC (stereo not drawn) [Example 11, 1-(3,4,5-Trimethoxy-benzoyl)-3-[2-[4-[1-(4-fluoro-benzyl)-1 H-benzoimidazole-2-carbonyl]-piperidin-1-yl]-ethyl]-3-phenyl-pyrrolidine] | 

Compound | Kb [1, 3] | IC50 [2, 4] | IC50 [2] | Kb [1]
COc1ccc(CC2(CCN3CCC(O)(c4nc5ccccc5n4Cc4ccc(F)cc4)CC3)CCN(Cc3cc(OC)c(OC)c(OC)c3)C2=O)cc1OC (stereo not drawn) [Example 55, 1-(3,4,5-Trimethoxy-benzyl)-3-[2-[4-[1-(4-fluoro-benzyl)-1H-benzoimidazol-2-yl]-4-hydroxy-piperidin-1-yl]-ethyl]-3-(3,4-dimethoxy-phenylmethyl)-2-oxo-pyrrolidine] | 0.912 µM |  | 0.385 µM | 
COc1cc(CN2CCC(CCN3CCC(O)(c4nc5ccccc5n4Cc4ccc(F)cc4)CC3)(Cc3ccc(F)cc3)C2=O)cc(OC)c1OC (stereo not drawn) [Example 57, 1-(3,4,5-Trimethoxy-benzyl)-3-[2-[4-[1-(4-fluoro-benzyl)-1H-benzoimidazol-2-yl]-4-hydroxy-piperidin-1-yl]-ethyl]-3-(4-fluoro-phenylmethyl)-2-oxo-pyrrolidine] | 0.155 µM |  | 0.114 µM | 
CCOCCn1c(C2(O)CCN(CCC3(c4ccc(Cl)c(Cl)c4)CCN(C(=O)c4cc(OC)c(OC)c(OC)c4)C3)CC2)nc2ccccc21 (single isomer, unassigned; (+)) [Example 81, (+)-1-(3,4,5-Trimethoxy-benzoyl)-3-[2-[4-[1-(2-ethoxy-ethyl)-1H-benzoimidazole]-4-hydroxy-piperidin-1-yl]-ethyl]-3-(3,4-dichloro-phenyl)-pyrrolidine] | 0.525 µM |  | 0.01 µM | 
COc1cc(CN2CCC(CCN3CCC(O)(c4nc5ccccc5n4Cc4ccc(F)cc4)CC3)(Cc3ccc(F)cc3F)C2=O)cc(OC)c1OC (stereo not drawn) [Example 58, 1-(3,4,5-Trimethoxy-benzyl)-3-[2-[4-[1-(4-fluoro-benzyl)-1H-benzoimidazol-2-yl]-4-hydroxy-piperidin-1-yl]-ethyl]-3-(2,4-difluoro-phenylmethyl)-2-oxo-pyrrolidine] | 0.151 µM |  | 0.345 µM | 
COc1ccc(C2(CCN3CCC(O)(c4nc5ccccc5n4Cc4ccc(F)cc4)CC3)CCN(C(=O)c3ccccc3)C2)cc1OC (stereo not drawn) [Example 3, 1-Benzoyl-3-[2-[4-[1-(4-fluoro-benzyl)-1 H-benzoimidazol-2-yl]-4-hydroxy-piperidin-1-yl]-ethyl]-3-(3,4-dimethoxy-phenyl)-pyrrolidine] |  |  | 0.406 µM | 0.0372 µM
COc1cc(C(=O)N2CCC(CCN3CCC(O)(c4nc5ccccc5n4Cc4ccc(F)cc4)CC3)(c3ccc(Cl)c(Cl)c3)C2)cc(OC)c1OC (stereo not drawn) [Example 7, 1-(3,4,5-Trimethoxy-benzoyl)-3-[2-[4-[1-(4-fluoro-benzyl)-1 H-benzoimidazol-2-yl]-4-hydroxy-piperidin-1-yl]-ethyl]-3-(3,4-dichloro-phenyl)-pyrrolidine] |  |  | 0.064 µM | 0.0389 µM
